Legend:
Assay type in all cases: cell-based
[1] = target: Focal adhesion kinase 1 (Homo sapiens) (UniProt Q05397); test: Inhibition of FAK Lys1 labeling site in human A-375 cells at 0.05 uM by KiNativ Profiling analysis relative to control
[2] = target: T1, EKC/KEOPS complex subunit TP53RK (Homo sapiens) (UniProt Q96S44); test: Inhibition of PRPK ATP Loop labeling site in human A-375 cells at 0.5 uM by KiNativ Profiling analysis relative to control
T1 sequence (whole entry): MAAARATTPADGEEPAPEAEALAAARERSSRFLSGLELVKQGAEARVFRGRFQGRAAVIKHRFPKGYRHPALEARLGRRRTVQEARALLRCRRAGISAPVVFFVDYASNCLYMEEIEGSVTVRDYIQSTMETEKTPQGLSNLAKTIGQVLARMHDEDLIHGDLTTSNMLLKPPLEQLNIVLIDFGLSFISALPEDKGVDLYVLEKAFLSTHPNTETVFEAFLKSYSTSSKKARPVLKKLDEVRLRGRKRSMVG

[3] = target: T2, Dual specificity mitogen-activated protein kinase kinase 3 (Homo sapiens) (UniProt P46734); test: Inhibition of MAP2K3 Lys2 labeling site in human A-375 cells at 5 uM by KiNativ Profiling analysis relative to control
T2 sequence (whole entry): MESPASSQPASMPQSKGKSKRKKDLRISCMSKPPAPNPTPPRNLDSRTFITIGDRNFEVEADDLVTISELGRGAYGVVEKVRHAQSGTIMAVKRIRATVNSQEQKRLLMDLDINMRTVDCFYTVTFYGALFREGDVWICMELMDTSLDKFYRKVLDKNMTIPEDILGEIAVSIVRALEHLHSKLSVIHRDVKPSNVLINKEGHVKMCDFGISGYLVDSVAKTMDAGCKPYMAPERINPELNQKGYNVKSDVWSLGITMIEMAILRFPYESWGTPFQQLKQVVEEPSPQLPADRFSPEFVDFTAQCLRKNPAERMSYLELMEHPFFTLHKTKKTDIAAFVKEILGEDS

[4] = target: Protein kinase C beta type (Homo sapiens) (UniProt P05771); test: Inhibition of PKCb Lys2 labeling site in human A-375 cells at 0.05 uM by KiNativ Profiling analysis relative to control
[5] = target: T3, Ephrin type-B receptor 4 (Homo sapiens) (UniProt P54760); test: Inhibition of EphB4 ACT labeling site in human A-375 cells at 0.05 uM by KiNativ Profiling analysis relative to control
T3 sequence (whole entry): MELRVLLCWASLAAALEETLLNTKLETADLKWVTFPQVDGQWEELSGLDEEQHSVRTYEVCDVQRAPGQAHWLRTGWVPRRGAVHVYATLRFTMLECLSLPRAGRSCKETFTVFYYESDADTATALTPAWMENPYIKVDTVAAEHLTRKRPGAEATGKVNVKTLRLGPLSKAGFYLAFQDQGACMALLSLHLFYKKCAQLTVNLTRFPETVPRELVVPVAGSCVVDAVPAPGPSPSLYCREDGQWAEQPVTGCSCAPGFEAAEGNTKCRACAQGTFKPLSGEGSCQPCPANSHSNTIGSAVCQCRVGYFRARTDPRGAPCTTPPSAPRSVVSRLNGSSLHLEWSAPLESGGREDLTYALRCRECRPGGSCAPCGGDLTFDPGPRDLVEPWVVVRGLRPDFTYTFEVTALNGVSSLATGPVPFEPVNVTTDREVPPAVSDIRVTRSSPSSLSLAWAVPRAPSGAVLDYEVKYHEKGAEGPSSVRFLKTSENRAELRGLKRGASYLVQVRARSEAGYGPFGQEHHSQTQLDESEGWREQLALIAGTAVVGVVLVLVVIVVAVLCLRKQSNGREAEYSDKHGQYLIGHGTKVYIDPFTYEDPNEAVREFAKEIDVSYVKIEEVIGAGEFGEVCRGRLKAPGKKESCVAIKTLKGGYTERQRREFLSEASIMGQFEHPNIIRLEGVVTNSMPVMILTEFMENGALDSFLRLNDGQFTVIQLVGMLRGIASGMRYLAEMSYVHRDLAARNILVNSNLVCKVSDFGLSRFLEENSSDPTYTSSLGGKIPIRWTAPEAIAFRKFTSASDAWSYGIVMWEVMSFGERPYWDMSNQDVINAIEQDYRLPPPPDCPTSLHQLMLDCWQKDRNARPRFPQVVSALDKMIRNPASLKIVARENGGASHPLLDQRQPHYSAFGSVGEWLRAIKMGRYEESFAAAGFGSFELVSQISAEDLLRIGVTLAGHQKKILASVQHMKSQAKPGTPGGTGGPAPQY

[6] = target: RAF proto-oncogene serine/threonine-protein kinase (Homo sapiens, UniProt P04049); test: Inhibition of RAF1 Lys2 labeling site in human A-375 cells at 0.05 uM by KiNativ Profiling analysis relative to control
[7] = target: Mitogen-activated protein kinase 8 (Homo sapiens, UniProt P45983); test: Inhibition of JNK1 Lys2 labeling site in human A-375 cells at 0.5 uM by KiNativ Profiling analysis relative to control
[8] = target: Mitogen-activated protein kinase kinase kinase 11 (Homo sapiens) (UniProt Q16584); test: Inhibition of MLK3 Lys2 labeling site in human A-375 cells at 0.5 uM by KiNativ Profiling analysis relative to control
Sequence of Mitogen-activated protein kinase kinase kinase 11 (Homo sapiens) (Q16584 whole entry, looked up): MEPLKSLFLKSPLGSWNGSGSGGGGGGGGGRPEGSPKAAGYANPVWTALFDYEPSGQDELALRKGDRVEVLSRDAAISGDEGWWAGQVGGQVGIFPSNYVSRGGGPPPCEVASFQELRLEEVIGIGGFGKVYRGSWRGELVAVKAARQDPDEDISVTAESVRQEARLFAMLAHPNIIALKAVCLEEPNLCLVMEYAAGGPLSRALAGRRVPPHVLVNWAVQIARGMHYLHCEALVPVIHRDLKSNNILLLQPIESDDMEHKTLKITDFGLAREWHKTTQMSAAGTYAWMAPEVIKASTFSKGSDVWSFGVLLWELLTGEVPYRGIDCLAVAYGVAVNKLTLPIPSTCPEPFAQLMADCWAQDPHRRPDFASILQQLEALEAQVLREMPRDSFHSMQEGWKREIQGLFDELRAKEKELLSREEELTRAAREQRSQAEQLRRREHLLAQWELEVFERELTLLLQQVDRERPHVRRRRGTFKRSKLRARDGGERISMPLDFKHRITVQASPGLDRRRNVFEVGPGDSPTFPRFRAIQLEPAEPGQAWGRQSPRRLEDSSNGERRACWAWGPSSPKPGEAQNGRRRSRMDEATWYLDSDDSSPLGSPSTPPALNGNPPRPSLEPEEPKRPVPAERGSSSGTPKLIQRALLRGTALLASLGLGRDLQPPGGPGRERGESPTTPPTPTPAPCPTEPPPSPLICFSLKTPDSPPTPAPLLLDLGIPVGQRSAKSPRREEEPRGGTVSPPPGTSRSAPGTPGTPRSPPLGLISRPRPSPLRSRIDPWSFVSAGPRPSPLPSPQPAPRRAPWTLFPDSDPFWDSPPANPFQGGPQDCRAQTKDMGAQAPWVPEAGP

Sequence of RAF proto-oncogene serine/threonine-protein kinase (P04049 whole entry): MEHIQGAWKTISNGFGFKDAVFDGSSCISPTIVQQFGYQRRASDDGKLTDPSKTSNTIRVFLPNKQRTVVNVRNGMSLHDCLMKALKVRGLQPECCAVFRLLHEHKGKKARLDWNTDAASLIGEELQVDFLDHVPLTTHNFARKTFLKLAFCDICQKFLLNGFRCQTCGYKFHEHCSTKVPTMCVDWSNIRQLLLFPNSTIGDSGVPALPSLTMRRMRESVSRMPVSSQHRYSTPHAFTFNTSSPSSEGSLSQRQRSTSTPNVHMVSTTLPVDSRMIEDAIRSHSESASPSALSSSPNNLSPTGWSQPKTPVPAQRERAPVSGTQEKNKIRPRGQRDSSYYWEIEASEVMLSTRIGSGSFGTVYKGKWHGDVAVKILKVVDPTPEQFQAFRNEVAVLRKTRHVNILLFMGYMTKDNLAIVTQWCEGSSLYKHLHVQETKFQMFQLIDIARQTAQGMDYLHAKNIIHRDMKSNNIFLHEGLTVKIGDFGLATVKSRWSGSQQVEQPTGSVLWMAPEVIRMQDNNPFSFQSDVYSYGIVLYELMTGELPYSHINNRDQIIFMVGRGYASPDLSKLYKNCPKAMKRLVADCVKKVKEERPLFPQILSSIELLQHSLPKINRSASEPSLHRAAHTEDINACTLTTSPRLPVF
Sequence of Mitogen-activated protein kinase 8 (P45983 whole entry): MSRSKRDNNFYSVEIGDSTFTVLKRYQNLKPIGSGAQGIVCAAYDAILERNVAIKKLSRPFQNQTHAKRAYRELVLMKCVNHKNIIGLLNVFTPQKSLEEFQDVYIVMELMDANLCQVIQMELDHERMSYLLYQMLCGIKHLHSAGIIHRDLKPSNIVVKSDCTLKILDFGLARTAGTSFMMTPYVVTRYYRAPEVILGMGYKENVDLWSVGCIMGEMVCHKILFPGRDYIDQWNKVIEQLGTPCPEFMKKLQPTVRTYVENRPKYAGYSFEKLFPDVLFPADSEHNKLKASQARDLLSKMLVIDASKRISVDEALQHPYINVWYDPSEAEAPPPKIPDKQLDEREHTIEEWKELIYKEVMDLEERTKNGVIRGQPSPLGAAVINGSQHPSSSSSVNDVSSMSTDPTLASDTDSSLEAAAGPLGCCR
Sequence of Focal adhesion kinase 1 (Homo sapiens) (Q05397 2-1052 limits assumed): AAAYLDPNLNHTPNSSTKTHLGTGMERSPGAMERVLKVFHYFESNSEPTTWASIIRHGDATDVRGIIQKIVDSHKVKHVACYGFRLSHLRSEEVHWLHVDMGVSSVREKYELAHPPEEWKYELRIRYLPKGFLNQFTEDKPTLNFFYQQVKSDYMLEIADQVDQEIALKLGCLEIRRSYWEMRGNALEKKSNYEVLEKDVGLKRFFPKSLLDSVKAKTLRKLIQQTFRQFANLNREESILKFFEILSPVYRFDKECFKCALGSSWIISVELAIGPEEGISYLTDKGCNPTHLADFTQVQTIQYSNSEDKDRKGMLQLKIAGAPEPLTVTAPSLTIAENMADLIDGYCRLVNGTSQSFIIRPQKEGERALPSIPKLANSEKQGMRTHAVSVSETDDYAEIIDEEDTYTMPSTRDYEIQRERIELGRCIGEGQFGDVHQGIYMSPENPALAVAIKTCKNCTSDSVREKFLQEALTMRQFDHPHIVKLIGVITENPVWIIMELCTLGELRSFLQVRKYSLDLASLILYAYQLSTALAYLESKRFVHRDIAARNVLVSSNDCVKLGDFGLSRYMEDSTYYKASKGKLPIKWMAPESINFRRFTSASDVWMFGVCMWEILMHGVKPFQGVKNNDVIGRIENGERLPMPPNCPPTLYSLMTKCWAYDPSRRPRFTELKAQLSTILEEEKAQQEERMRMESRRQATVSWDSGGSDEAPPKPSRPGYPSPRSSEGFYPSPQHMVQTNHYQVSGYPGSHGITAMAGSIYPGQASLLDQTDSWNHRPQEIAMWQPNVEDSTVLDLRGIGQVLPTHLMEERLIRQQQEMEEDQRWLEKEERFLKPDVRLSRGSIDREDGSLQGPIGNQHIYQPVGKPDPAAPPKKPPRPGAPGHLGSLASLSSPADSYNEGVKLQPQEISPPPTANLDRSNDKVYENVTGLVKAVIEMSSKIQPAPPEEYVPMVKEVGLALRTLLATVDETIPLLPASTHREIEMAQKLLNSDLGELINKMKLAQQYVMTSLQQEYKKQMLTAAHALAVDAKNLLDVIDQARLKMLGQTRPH
Sequence of Protein kinase C beta type (Homo sapiens) (P05771 2-671 limits assumed): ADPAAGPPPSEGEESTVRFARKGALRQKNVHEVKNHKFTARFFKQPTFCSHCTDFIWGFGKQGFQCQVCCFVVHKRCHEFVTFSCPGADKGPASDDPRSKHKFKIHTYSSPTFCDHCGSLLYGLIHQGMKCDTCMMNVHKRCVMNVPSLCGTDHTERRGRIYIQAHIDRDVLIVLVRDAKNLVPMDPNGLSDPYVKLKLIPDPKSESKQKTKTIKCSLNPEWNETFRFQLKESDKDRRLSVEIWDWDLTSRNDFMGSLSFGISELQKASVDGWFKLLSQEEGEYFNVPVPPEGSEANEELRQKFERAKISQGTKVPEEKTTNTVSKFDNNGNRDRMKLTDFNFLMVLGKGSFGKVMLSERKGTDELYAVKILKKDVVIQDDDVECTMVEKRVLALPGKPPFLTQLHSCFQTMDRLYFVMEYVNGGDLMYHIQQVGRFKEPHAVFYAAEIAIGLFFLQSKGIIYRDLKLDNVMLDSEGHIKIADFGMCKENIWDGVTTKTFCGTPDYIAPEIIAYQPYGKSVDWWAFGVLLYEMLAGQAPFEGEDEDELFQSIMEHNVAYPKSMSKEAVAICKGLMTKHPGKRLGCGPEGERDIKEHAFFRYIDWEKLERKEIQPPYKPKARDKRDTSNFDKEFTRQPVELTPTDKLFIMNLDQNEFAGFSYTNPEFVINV

Structure (SMILES)	inhibition [1] [%]	inhibition [2] [%]	inhibition [3] [%]	inhibition [4] [%]	inhibition [5] [%]	inhibition [6] [%]	inhibition [7] [%]	inhibition [8] [%]
CCN1CCN(Cc2ccc(NC(=O)c3ccc(C)c(Oc4ccnc5[nH]ccc45)c3)cc2C(F)(F)F)CC1	1	9.2	-5.7	45.3	3.4	69.8	73.7	0.3
CCN1CCN(Cc2ccc(NC(=O)c3ccc(C)c(/C=C/c4cnc5[nH]ccc5c4OC)c3)cc2C(F)(F)F)CC1	4.7	9.6	-6.9	58	33.4	63.7	40.6	10.5
